Here are results for 7 compounds from patent US12637471B2, “Heterocyclic compounds, compositions, methods of preparation and uses thereof” (Organon R&D Finland Ltd, priority 2021, dated 2026).

The conditions of data set [1]: phase II clinical trial, endometriosis; trial was terminated; cited from earlier work.
Data set [2] addresses T1, Recombinant human AKR1C3 (17β-HSD5) protein (Homo sapiens, UniProt P42330).
T1 construct: made in house; host or cells: E. coli
T1 sequence (P42330 1-323): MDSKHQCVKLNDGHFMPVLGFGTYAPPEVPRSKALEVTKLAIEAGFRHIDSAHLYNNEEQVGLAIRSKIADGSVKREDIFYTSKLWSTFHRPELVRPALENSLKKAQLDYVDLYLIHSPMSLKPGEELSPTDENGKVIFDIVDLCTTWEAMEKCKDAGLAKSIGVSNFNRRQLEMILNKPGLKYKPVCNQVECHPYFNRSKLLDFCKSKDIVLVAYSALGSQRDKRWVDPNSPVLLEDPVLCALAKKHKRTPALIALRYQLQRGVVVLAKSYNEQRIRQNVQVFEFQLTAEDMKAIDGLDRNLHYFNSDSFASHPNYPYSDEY
Kind of data set: Inhibition of AKR1C3 (17β-hydroxysteroid dehydrogenase type 5) enzyme, fluorescence assay. It is filed as biochemical. As to conditions: inhibitor at 500 nM. A digest of the protocol: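 E. coli-expressed human AKR1C3 (27 nM) in 20 mM KH2PO4, 1 mM EDTA, pH 7.4, with 1 μM pyranoquinolinone ketone substrate, 1 mM NADPH and inhibitor at 500 nM, 1% DMSO, 60–120 min at RT. Fluorescent alcohol product (ex 420/em 510 nm) quantified against standards; inhibition derived from conversion percentages.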

Data set [3] addresses T2, Recombinant human aldo-keto reductase family 1 member C2 (AKR1C2) protein (Homo sapiens, UniProt P52895).
T2 construct: made in house; host or cells: Sf-9 insect cells (baculovirus)
T2 sequence (P52895 1-323): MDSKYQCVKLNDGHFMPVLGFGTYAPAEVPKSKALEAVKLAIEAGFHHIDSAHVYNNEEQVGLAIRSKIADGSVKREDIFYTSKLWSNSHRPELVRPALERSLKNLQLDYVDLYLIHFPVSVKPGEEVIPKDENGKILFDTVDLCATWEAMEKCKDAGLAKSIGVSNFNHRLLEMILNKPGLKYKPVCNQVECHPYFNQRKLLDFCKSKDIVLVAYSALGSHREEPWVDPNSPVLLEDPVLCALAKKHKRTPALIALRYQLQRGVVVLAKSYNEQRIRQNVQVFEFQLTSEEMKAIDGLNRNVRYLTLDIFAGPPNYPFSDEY
Kind of data set: Inhibition of the aldo-keto reductase family 1 member C2, 3H-dihydrotestosterone conversion. It is filed as biochemical. The conditions noted are these: inhibitor at 10 μM. The method, boiled down: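 Sf-9-expressed enzyme (13.6 nM) incubated 45 min at 37 °C in 20 mM KH2PO4 pH 7.4 with 1 mM NADPH, 6.25 nM [3H]dihydrotestosterone and 10 μM compound (1% DMSO). After TCA stop, substrate and 5α-androstane-3α,17β-diol resolved by UPLC with radio-detection; inhibition from percent conversion.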

Data set [4] concerns the target T3, 17β-Hydroxysteroid Dehydrogenase Type 2 Enzyme (17β-HSD2) (Homo sapiens, UniProt P37059).
T3 construct: made in house; host or cells: Sf-9 insect cells (baculovirus)
T3 sequence (P37059 1-387): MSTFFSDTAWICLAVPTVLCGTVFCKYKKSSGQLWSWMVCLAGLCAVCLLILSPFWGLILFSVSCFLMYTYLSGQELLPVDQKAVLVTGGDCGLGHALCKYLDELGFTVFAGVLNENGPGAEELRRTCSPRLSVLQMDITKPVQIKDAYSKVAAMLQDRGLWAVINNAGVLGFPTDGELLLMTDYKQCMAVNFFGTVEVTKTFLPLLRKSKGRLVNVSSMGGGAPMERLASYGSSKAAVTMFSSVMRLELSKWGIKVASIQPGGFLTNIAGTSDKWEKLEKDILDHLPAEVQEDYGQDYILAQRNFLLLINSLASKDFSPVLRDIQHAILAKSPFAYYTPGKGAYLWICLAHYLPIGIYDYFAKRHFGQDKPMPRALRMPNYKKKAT
The experiment in a line: Inhibition of the 17β-hydroxysteroid dehydrogenase type 2 enzyme, 3H-testosterone conversion. The conditions noted are these: inhibitor at 10 μM. The format is biochemical. The method, boiled down: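 Recombinant human 17β-HSD2 (Sf-9/baculovirus; 105 nM) incubated with 56.25 nM ³H-testosterone and 1 mM NAD in 20 mM KH2PO4 pH 8.5, 1 mM EDTA, 1% DMSO, 30 min at RT, inhibitor 10 μM. Reaction stopped with TCA; conversion to ³H-androstenedione by radio-UPLC gives percent inhibition.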

Take `CN(CCC(=O)O)C(=O)c1ccc2c(c1)CC[C@@H]1[C@@H]2CC[C@]2(C)C(c3cncc(F)c3)=CC[C@@H]12` [BAY-1128688]: the “bilirubin levels of patients” value in data set [1] is given as “raised bilirubin levels”.

For orientation: inhibition means the drop in the measured response relative to a control, in per cent. `N#CC(=C1CCN(C(=O)N2CCn3ncnc3C2)CC1)c1ccc(Cl)s1` [Compound 168, 2-(5-chlorothiophen-2-yl)-2-(1-(5,6,7,8-tetrahydro-[1,2,4]triazolo[1,5-a]pyrazine-7-carbonyl)piperidin-4-ylidene)acetonitrile]: in data set [2], the inhibition at 0.5 µM is 98%. In addition, the inhibition at 10 µM in data set [3] was 24%; in data set [4], -2%.

For the compound `CN(C(=O)N1CCC(=C(C#N)c2ccc(Cl)cc2)CC1)C1COC1` [Compound 169, 4-((4-chlorophenyl)(cyano)methylene)-N-methyl-N-(oxetan-3-yl)piperidine-1-carboxamide], the inhibition at 0.5 µM in data set [2] is 95%. In addition, the inhibition at 10 µM in data set [3] was 7%; in data set [4], -2%.

In the case of `CCN(CC)C(=O)N1CCC(=C(C#N)c2ccc(OC(F)(F)F)cc2)CC1` [Compound 170, 4-(cyano(4-(trifluoromethoxy)phenyl)methylene)-N,N-diethylpiperidine-1-carboxamide], the inhibition at 0.5 µM in data set [2] was found to be 98%. In addition, the inhibition at 10 µM is 4% in data set [3] and 28% in data set [4].

In the case of `CCN(CC)C(=O)N1CCC(=C(C#N)c2ccc(C(F)(F)F)cc2)CC1` [Compound 171, 4-(cyano(4-(trifluoromethyl)phenyl)methylene)-N,N-diethylpiperidine-1-carboxamide], the inhibition at 0.5 µM in data set [2] worked out at 99%. Also, the inhibition at 10 µM in data set [3] was 3%; in data set [4], 17%.

For the compound `CCN(CC)C(=O)N1CCC(=C(C#N)c2ccc(F)cn2)CC1` [Compound 172, 4-(cyano(5-fluoropyridin-2-yl)methylene)-N,N-diethylpiperidine-1-carboxamide], the inhibition at 0.5 µM in data set [2] stood at 95%. Also, the inhibition at 10 µM in data set [3] was -2%; in data set [4], 13%.

Take `CCN(CC)C(=O)N1CCC(=C(C#N)c2ccc(Cl)s2)CC1` [Compound 173, 4-((5-chlorothiophen-2-yl)(cyano)methylene)-N,N-diethylpiperidine-1-carboxamide]: the inhibition at 0.5 µM in data set [2] amounted to 99%. The results for the inhibition at 10 µM in data set [3] and in data set [4] were 29% and 50%, respectively.
